Experimental data as given in the NIST ThermoML archive (doi:10.1021/je800925v).

Assay: xn = mol fraction of the nth substance listed
Conditions: Liquid

CCCCCC [hexane] + CCO
Conditions | mass density [kg/m3] | viscosity [mPa·s]
273.15 K, x2 = 0.101 | 688.8 | 0.3638
273.15 K, x2 = 0.198 | 694.5 | 0.4
273.15 K, x2 = 0.302 | 702 | 0.4511
273.15 K, x2 = 0.401 | 712.1 | 0.5478
273.15 K, x2 = 0.496 | 721.4 | 0.6415
273.15 K, x2 = 0.6 | 732.7 | 0.77
273.15 K, x2 = 0.701 | 744.1 | 0.8963
273.15 K, x2 = 0.793 | 760.4 | 1.096
273.15 K, x2 = 0.901 | 781.1 | 1.377
275.65 K, x2 = 0.101 | 686.5 | 0.3563
275.65 K, x2 = 0.198 | 692.3 | 0.3904
275.65 K, x2 = 0.302 | 699.7 | 0.4388
275.65 K, x2 = 0.401 | 709.8 | 0.5294
275.65 K, x2 = 0.496 | 719.2 | 0.6182
275.65 K, x2 = 0.6 | 730.5 | 0.7386
275.65 K, x2 = 0.701 | 741.9 | 0.8583
275.65 K, x2 = 0.793 | 758.3 | 1.047
275.65 K, x2 = 0.901 | 779 | 1.311
278.15 K, x2 = 0.101 | 684.3 | 0.3492
278.15 K, x2 = 0.198 | 690 | 0.3812
278.15 K, x2 = 0.302 | 697.5 | 0.4269
278.15 K, x2 = 0.401 | 707.6 | 0.5119
278.15 K, x2 = 0.496 | 716.9 | 0.5956
278.15 K, x2 = 0.6 | 728.3 | 0.709
278.15 K, x2 = 0.701 | 739.7 | 0.8224
278.15 K, x2 = 0.793 | 756.1 | 1
278.15 K, x2 = 0.901 | 776.8 | 1.25
280.65 K, x2 = 0.101 | 682 | 0.3422
280.65 K, x2 = 0.198 | 687.8 | 0.3722
280.65 K, x2 = 0.302 | 695.2 | 0.4154
280.65 K, x2 = 0.401 | 704.9 | 0.4927
280.65 K, x2 = 0.496 | 714.7 | 0.5741
280.65 K, x2 = 0.6 | 726.1 | 0.6809
280.65 K, x2 = 0.701 | 737.4 | 0.7884
280.65 K, x2 = 0.793 | 753.9 | 0.9561
280.65 K, x2 = 0.901 | 774.7 | 1.191
283.15 K, x2 = 0.101 | 679.8 | 0.3352
283.15 K, x2 = 0.198 | 685.5 | 0.3635
283.15 K, x2 = 0.302 | 692.9 | 0.4042
283.15 K, x2 = 0.401 | 702.7 | 0.4766
283.15 K, x2 = 0.496 | 712.4 | 0.5537
283.15 K, x2 = 0.6 | 723.8 | 0.6543
283.15 K, x2 = 0.701 | 735.2 | 0.7562
283.15 K, x2 = 0.793 | 751.7 | 0.9147
283.15 K, x2 = 0.901 | 772.5 | 1.136
285.65 K, x2 = 0.101 | 677.5 | 0.3283
285.65 K, x2 = 0.198 | 683.2 | 0.3549
285.65 K, x2 = 0.302 | 690.6 | 0.3934
285.65 K, x2 = 0.401 | 700.4 | 0.4614
285.65 K, x2 = 0.496 | 710.1 | 0.5343
